Test results published in PubChem BioAssay (NCI).
“And” between values parts separate entries of the source, which are not always exact repeats. Equal values may be shown once.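 Test compounds were applied to cells in 96-well plates for 48 hours at 5 doses. GI50 is the concentration that inhibits growth by half. TGI denotes the concentration required for complete inhibition of growth.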

Legend:
Assay in all cases: NCI tumour cell line growth inhibition, 48 h
HL-60(TB) leukemia = tested on: HL-60(TB) leukemia
OVCAR-4 ovarian = tested on: OVCAR-4 ovarian
SF-295 CNS = tested on: SF-295 CNS
ACHN renal = tested on: ACHN renal
NCI/ADR-RES ovarian = tested on: NCI/ADR-RES ovarian
SR leukemia = tested on: SR leukemia
HCC-2998 colon = tested on: HCC-2998 colon
T-47D breast = tested on: T-47D breast
SK-OV-3 ovarian = tested on: SK-OV-3 ovarian
SK-MEL-2 melanoma = tested on: SK-MEL-2 melanoma

SMILES	TGI (HL-60(TB) leukemia)	TGI (OVCAR-4 ovarian)	TGI (SF-295 CNS)	TGI (ACHN renal)	TGI (NCI/ADR-RES ovarian)	TGI (SR leukemia)	TGI (HCC-2998 colon)	TGI (T-47D breast)	TGI (SK-OV-3 ovarian)	TGI (SK-MEL-2 melanoma)	GI50 (HL-60(TB) leukemia)	GI50 (OVCAR-4 ovarian)	GI50 (SF-295 CNS)	GI50 (ACHN renal)	GI50 (NCI/ADR-RES ovarian)	GI50 (SR leukemia)	GI50 (HCC-2998 colon)	GI50 (T-47D breast)	GI50 (SK-OV-3 ovarian)	GI50 (SK-MEL-2 melanoma)
O=C1c2ccccc2C(=O)c2c(/C=C\N3CCCCC3)ccnc21	27.8 µM	28.4 µM	5.25 µM	21.1 µM	> 95.4 µM	35.9 µM	11.9 µM	> 44 µM	50.9 µM	14 µM										
CCNC(=O)C#Cc1ccc2c(C(=Nc3ccc(CN(C)C)cc3)c3ccccc3)c(O)[nH]c2c1	0.932 µM	7.63 µM	3.31 µM	2.58 µM	> 10 µM	2.93 µM	0.696 µM	> 6.87 µM	> 10 µM	0.228 µM	0.00976 µM	0.61 µM	0.249 µM	0.265 µM	1.7 µM	0.00778 µM	0.106 µM	3.21 µM	1.86 µM	0.0323 µM
CN1CCN(c2ccc(Nc3ncc(Cl)c(NC[C@@H]4CCCO4)n3)cc2)CC1	4.76 µM	81.7 µM	26.3 µM	> 100 µM	> 100 µM	6.03 µM	37.5 µM	58.3 µM	63.8 µM	7.94 µM	1.48 µM	3.03 µM	1.26 µM	0.973 µM	3.15 µM	0.513 µM	1.65 µM	5.8 µM	2.63 µM	2.59 µM
O=C(Nc1cccc(C(F)(F)F)c1)Nc1cccc(C(F)(F)F)c1	5.86 µM	13.7 µM	1.57 µM	7.6 µM	4.84 µM	7.56 µM	6.5 µM	2.94 µM	6.34 µM	4.73 µM	1.84 µM	0.679 µM	0.323 µM	0.422 µM	0.651 µM	1.77 µM	1.51 µM	0.398 µM	1.89 µM	1.84 µM
NC(=S)N/N=C1\c2cc(Cl)ccc2-c2c1cc(Cl)cc2[N+](=O)[O-]	51.9 µM	8.35 µM	73.7 µM	> 100 µM	> 100 µM	> 100 µM	> 100 µM	7.65 µM	> 100 µM	89.8 µM	6.15 µM	1.92 µM	3.57 µM	4.81 µM	4.76 µM	4.87 µM	12.1 µM	2.07 µM	9.4 µM	7.96 µM
Cc1cc2c(cc1C)[n+](=O)c(C(=O)c1ccccc1)c(C(F)F)n2[O-]	18.9 µM	> 100 µM	42.5 µM	> 100 µM	> 100 µM	98.4 µM	> 100 µM	> 100 µM	> 100 µM	78.3 µM	3.3 µM	14.2 µM	7.27 µM	18 µM	36.3 µM	4.39 µM	32.8 µM	30.3 µM	54.5 µM	21.2 µM
CC(=O)Nc1cc2ccc(=O)oc2cc1Cl	> 100 µM	> 100 µM	> 100 µM	> 100 µM	> 100 µM	> 100 µM	> 100 µM	> 100 µM		> 100 µM										
Cc1cc(Nc2ccc(C)c(Cl)c2)n2nc(C(F)(F)F)nc2n1	66.2 µM	> 100 µM	74 µM	35.9 µM	> 100 µM	57 µM	> 100 µM	76 µM	96.7 µM	55.4 µM	22.1 µM	25.8 µM	21.2 µM	16.3 µM	27.1 µM	18.4 µM	40.8 µM	17.5 µM	29.9 µM	22.9 µM
NC(N)=NS(=O)(=O)c1ccc(N=Nc2c(O)c(C(=O)O)cc3ccccc23)cc1	> 100 µM	> 100 µM	> 100 µM	> 100 µM	> 100 µM	> 100 µM	> 100 µM	> 100 µM	> 100 µM	> 100 µM										
O=C1CSC(=S)N1/N=C/c1ccc(Cl)c([N+](=O)[O-])c1	61 µM	50.7 µM	68.5 µM	45.6 µM	52.5 µM	> 100 µM	27.5 µM	59.3 µM	> 100 µM	92.7 µM										
Nc1nc2[nH]cc(CCc3ccc(C(=O)N[C@@H](CCC(=O)O)C(=O)O)cc3)c2c(=O)[nH]1	> 100 µM	> 100 µM	> 100 µM	> 100 µM	> 100 µM	> 100 µM	> 100 µM	> 100 µM	> 100 µM	> 100 µM	0.684 µM		0.606 µM	0.129 µM	> 100 µM		0.0576 µM			
C=CC(=O)Nc1cc(Nc2nccc(-c3cn(C)c4ccccc34)n2)c(OC)cc1N(C)CCN(C)C	3.33 µM and 3.99 µM	20.5 µM and > 10 µM	8.31 µM and 4.61 µM	1.95 µM and 1.88 µM	9.57 µM and 8.18 µM	4.94 µM and 3.77 µM	3.37 µM and 2.98 µM	11.6 µM and > 10 µM	18.1 µM and > 10 µM	4.04 µM and 3.87 µM	1.47 µM and 1.71 µM	2.74 µM and 2.42 µM	2.76 µM and 2.02 µM	0.272 µM and 0.479 µM	1.85 µM and 1.45 µM	1.29 µM and 1.62 µM	1.56 µM and 1.48 µM	0.815 µM and 0.363 µM	0.0501 µM and 0.0311 µM	2.08 µM and 1.94 µM
Fc1cc(-c2nnc3n2N=C(c2ccc(Cl)cc2)CS3)c(Cl)cc1Cl	> 100 µM	32.8 µM	34.7 µM	9.58 µM	36.8 µM	> 100 µM	31.1 µM	20 µM	51.5 µM	> 57.8 µM	0.96 µM	7.91 µM	17 µM	3.22 µM	9.29 µM	0.49 µM	15.9 µM	2.76 µM	22.5 µM	27 µM
C/C=C/[C@@H]1O[C@@H]2COC(=O)C2=C[C@@H]1O	> 100 µM	42.8 µM	> 56.4 µM	13.4 µM	60.5 µM	> 100 µM	48.8 µM	24.2 µM	> 58.4 µM	> 79.7 µM	10.6 µM	16.1 µM	29.9 µM	3.58 µM	25.9 µM	9.61 µM	24.1 µM	6.31 µM	25.9 µM	33.1 µM
